A word on the IC50: it is the point on the concentration scale where inhibition reaches its midpoint.

Structures are written as SMILES.

T1 sequence (O00763 144-2458): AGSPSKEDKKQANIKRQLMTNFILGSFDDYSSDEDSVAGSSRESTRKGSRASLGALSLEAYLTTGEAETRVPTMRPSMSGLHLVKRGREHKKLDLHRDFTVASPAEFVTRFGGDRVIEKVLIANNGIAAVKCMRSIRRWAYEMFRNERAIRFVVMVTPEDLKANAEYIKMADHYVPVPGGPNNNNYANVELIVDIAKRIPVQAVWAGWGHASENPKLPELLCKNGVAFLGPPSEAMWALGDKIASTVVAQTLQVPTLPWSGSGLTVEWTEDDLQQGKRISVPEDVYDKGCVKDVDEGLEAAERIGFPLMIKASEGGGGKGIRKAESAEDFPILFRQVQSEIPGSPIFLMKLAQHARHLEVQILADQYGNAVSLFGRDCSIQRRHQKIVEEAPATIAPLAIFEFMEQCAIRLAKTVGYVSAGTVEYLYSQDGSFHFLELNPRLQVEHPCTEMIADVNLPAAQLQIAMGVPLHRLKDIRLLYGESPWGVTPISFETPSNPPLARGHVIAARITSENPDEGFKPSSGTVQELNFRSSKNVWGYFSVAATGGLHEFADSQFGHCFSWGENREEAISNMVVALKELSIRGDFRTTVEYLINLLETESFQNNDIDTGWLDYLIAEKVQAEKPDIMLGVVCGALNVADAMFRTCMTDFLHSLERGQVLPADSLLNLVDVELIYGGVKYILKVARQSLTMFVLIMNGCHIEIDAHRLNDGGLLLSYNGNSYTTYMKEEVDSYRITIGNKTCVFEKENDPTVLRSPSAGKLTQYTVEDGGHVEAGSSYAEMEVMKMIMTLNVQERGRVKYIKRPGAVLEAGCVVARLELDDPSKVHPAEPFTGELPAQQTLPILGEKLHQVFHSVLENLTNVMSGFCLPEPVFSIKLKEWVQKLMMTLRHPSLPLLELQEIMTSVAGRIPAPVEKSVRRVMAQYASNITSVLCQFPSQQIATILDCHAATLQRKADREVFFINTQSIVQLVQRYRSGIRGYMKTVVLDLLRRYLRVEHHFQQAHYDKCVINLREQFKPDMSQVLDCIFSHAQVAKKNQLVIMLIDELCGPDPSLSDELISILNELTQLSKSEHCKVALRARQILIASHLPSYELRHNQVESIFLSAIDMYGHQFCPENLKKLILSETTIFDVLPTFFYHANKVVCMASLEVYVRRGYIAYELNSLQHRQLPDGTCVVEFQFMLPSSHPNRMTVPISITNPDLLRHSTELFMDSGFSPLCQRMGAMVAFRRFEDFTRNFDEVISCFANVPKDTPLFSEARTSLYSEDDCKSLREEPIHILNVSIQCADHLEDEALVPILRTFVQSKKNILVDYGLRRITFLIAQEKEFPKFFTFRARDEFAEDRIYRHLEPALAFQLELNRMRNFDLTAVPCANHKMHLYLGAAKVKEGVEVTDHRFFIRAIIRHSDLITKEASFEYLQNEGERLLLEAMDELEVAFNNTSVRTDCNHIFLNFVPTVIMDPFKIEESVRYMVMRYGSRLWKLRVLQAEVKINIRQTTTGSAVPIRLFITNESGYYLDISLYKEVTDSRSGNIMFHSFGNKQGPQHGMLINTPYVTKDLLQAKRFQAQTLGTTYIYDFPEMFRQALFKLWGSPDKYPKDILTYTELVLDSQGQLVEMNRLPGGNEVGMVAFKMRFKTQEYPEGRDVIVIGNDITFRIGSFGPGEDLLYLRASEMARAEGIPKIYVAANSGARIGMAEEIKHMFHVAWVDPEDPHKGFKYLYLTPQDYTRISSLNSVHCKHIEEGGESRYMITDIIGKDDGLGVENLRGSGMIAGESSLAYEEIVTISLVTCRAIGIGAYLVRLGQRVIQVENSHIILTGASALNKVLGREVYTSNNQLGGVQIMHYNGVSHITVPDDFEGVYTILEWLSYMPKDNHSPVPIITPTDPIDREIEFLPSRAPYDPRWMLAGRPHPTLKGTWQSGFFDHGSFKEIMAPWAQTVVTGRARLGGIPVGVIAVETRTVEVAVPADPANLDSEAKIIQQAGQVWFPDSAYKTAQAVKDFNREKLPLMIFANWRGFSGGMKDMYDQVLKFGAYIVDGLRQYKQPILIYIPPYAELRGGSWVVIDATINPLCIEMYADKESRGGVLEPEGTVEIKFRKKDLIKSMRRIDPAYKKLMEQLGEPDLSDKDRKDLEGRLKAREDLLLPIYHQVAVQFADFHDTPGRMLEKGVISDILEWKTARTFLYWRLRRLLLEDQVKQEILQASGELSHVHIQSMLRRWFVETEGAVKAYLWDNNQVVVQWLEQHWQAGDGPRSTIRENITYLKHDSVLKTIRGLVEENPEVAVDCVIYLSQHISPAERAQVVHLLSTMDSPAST

The assay has as its target T1, human acetyl-CoA carboxylase 2 (ACC2) (Homo sapiens, UniProt O00763).
T1 construct: The cDNA encoding amino acids 144 to 2458 of human acetyl-CoA carboxylase 2; made in house; host or cells: Sf9 insect cells (baculovirus, pFastBac1)
The assay can be described thus: Acetyl-CoA carboxylase enzyme assay (malonyl-CoA formation by LC/MS/MS). Type of assay: biochemical. Particulars: recombinant human ACC2 (aa 144-2458); read-out: IC50 ACC2. An outline of the steps:
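Malonyl-CoA formation was read by LC/MS/MS MRM against a [13C3]-malonyl-CoA internal standard, after acetic acid quench. The enzyme was baculovirus/Sf9-expressed human ACC2 residues 144–2458, given 15 minutes room-temperature compound preincubation in HEPES pH 7.5 buffer with MgCl2, citrate and DTT. Substrate solution held 50 μM acetyl-CoA, 120 μM ATP and 2 mM KHCO3.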
Turning to `Cn1c(-c2ccccc2)cc2ccc(S(=O)(=O)NC3CCC(C(=O)NC4CCCCNC4=O)CC3)cc21` (centres unmarked) [Example 435, (1r,4r)-4-(1-methyl-2-phenyl-1H-indole-6-sulfonamido)-N-(2-oxoazepan-3-yl)cyclohexanecarboxamide], the IC50 is 20 nM.
The result for `Cn1c(-c2ccc(CO)cc2)cc2ccc(S(=O)(=O)N[C@H]3CC[C@H](C(=O)N4CCNC(=O)C4)CC3)cc21` [Example 347, 2-(4-(hydroxymethyl)phenyl)-1-methyl-N-((1r,4r)-4-(3-oxopiperazine-1-carbonyl)cyclohexyl)-1H-indole-6-sulfonamide] reads 120 nM; that for `CCC1CCc2cc(S(=O)(=O)N[C@H]3CC[C@H](C(=O)N[C@H](C)c4ccc(F)cc4)CC3)ccc2N1` (stereo partly drawn) [Example 77, (1r,4R)-4-(2-ethyl-1,2,3,4-tetrahydroquinoline-6-sulfonamido)-N-((R)-1-(4-fluorophenyl)ethyl)cyclohexanecarboxamide], 50 nM.
Take `CC(C)OC(=O)c1ccc(NS(=O)(=O)c2ccc3[nH]c(Nc4cccc(-n5ccsc5=O)c4)nc3c2)cc1` [Example 549, isopropyl 4-(2-(3-(2-oxothiazol-3(2H)-yl)phenylamino)-1H-benzo[d]imidazole-5-sulfonamido)benzoate]: the IC50 is 737 nM.
The result for `COCCN(C(=O)[C@H]1CC[C@H](NS(=O)(=O)c2ccc3[nH]c(-c4ccccc4)nc3c2)CC1)C(C)C` [Example 675, (1r,4R)-N-isopropyl-N-(2-methoxyethyl)-4-(2-phenyl-1H-benzo[d]imidazole-5-sulfonamido)cyclohexanecarboxamide] reads 105 nM.
Then `Cc1ccc(C)c(-c2cc3ccc(S(=O)(=O)N[C@H]4CC[C@H](C(=O)N[C@H](C)c5ccc(F)cc5)CC4)cc3[nH]2)c1` [Example 298, (1r,4R)-4-(2-(2,5-dimethylphenyl)-1H-indole-6-sulfonamido)-N-((R)-1-(4-fluorophenyl)ethyl)cyclohexanecarboxamide], with 24 nM; and `COC(=O)c1cccc(-c2nc3cc(S(=O)(=O)N[C@H]4CC[C@H](c5nnc(C(C)(C)C)o5)CC4)ccc3[nH]2)c1` [Example 608, methyl 3-(5-(N-((1r,4r)-4-(5-tert-butyl-1,3,4-oxadiazol-2-yl)cyclohexyl)sulfamoyl)-1H-benzo[d]imidazol-2-yl)benzoate], with 971 nM; and `C[C@H]1COCCN1C(=O)[C@H]1CC[C@H](NS(=O)(=O)c2ccc3cc(-c4ccccc4)n(C)c3c2)CC1` [Example 425, 1-methyl-N-((1S,4r)-4-((S)-3-methylmorpholine-4-carbonyl)cyclohexyl)-2-phenyl-1H-indole-6-sulfonamide], with 30 nM.
Then `O=C([C@H]1CC[C@H](NS(=O)(=O)c2ccc3cc(-c4ccccc4)[nH]c3c2)CC1)N1CCNC(C(F)(F)F)C1` (some centres unmarked) [Example 323, 2-phenyl-N-((1r,4r)-4-(3-(trifluoromethyl)piperazine-1-carbonyl)cyclohexyl)-1H-indole-6-sulfonamide], with 55 nM; and `O=C([C@H]1CC[C@H](NS(=O)(=O)c2ccc3c(c2)oc2ccccc23)CC1)N1CCNC[C@@H]1c1ccccc1` [Example 264, N-((1S,4r)-4-((S)-2-phenylpiperazine-1-carbonyl)cyclohexyl)dibenzo[b,d]furan-3-sulfonamide], with 20 nM; and `Cn1c(-c2ccccc2)cc2ccc(S(=O)(=O)N[C@H]3CC[C@H](C(=O)N4CCC[C@H](C(C)(C)O)C4)CC3)cc21` [Example 404, N-((1S,4r)-4-((S)-3-(2-hydroxypropan-2-yl)piperldine-1-carbonyl)cyclohexyl)-1-methyl-2-phenyl-1H-indole-6-sulfonamide], with below 10 nM.
Turning to `CC(C)OC(=O)c1ccc(NS(=O)(=O)c2ccc3nc(-c4cncs4)[nH]c3c2)cc1` [Example 510, isopropyl 4-(2-(thiazol-5-yl)-1H-benzo[d]imidazole-6-sulfonamido)benzoate], the IC50 worked out at 1810 nM.
With `COc1ccccc1-c1nc2ccc(S(=O)(=O)Nc3ccc(C(=O)OC(C)C)cc3)cc2[nH]1` [Example 492, isopropyl 4-(2-(2-methoxyphenyl)-1H-benzo[d]imidazole-6-sulfonamido)benzoate], the IC50 came to 1350 nM.
The result for `CC(C)COC(=O)N1CCC(C)(C)c2ccc(S(=O)(=O)N[C@H]3CC[C@H](C(=O)N[C@H](C)c4ccc(F)cc4)CC3)cc21` [Example 212, isobutyl 7-(N-((1R,4r)-4-((R)-1-(4-fluorophenyl)ethylcarbamoyl)cyclohexyl)sulfamoyl)-4,4-dimethyl-3,4-dihydroquinoline-1(2H)-carboxylate] reads 165 nM; that for `O=C(Nc1ccc2ncccc2c1)[C@H]1CC[C@H](NS(=O)(=O)c2ccc3[nH]c(-c4ccccc4)nc3c2)CC1` [Example 647, (1r,4r)-4-(2-phenyl-1H-benzo[d]imidazole-5-sulfonamido)-N-(quinolin-6-yl)cyclohexanecarboxamide], 726 nM; that for `CC(C)(C)c1nnc([C@H]2CC[C@H](NS(=O)(=O)c3ccc4[nH]c(-c5ccc(F)cc5)nc4c3)CC2)o1` [Example 607, N-((1r,4r)-4-(5-tert-butyl-1,3,4-oxadiazol-2-yl)cyclohexyl)-2-(4-fluorophenyl)-1H-benzo[d]imidazole-5-sulfonamide], 1090 nM.
As for `C[C@@H](NC(=O)[C@H]1CC[C@H](NS(=O)(=O)c2ccc3nc(N4CCNC(C(F)(F)F)C4)ccc3c2)CC1)c1ccc(F)cc1` (stereo partly drawn) [Example 248, (1r,4R)-N-((R)-1-(4-fluorophenyl)ethyl)-4-(2-(3-(trifluoromethyl)piperazin-1-yl)quinoline-6-sulfonamido)cyclohexanecarboxamide], the IC50 was 210 nM.
The result for `CC(C)OC(=O)c1ccc(NS(=O)(=O)c2ccc3[nH]c(Nc4cccc(C(C)O)c4)nc3c2)cc1` (centres unmarked) [Example 553, isopropyl 4-(2-(3-(1-hydroxyethyl)phenylamino)-1H-benzo[d]imidazole-5-sulfonamido)benzoate] reads 119 nM.
Then `Cn1c(-c2ccc(F)cc2)cc2ccc(S(=O)(=O)N[C@H]3CC[C@H](C(=O)N4CCNC(C(F)(F)F)C4)CC3)cc21` (some centres unmarked) [Example 344, 2-(4-fluorophenyl)-1-methyl-N-((1r,4r)-4-(3-(trifluoromethyl)piperazine-1-carbonyl)cyclohexyl)-1H-indole-6-sulfonamide], with 60 nM; and `CCOc1ccc2cc(S(=O)(=O)NC3CCC(C(=O)NC(CO)c4ccccc4)CC3)ccc2n1` [Example 205, (1r,4S)-4-(2-ethoxyquinoline-6-sulfonamido)-N-((S)-2-hydroxy-1-phenylethyl)cyclohexanecarboxamide], with 20 nM.
Then `CC(NC(=O)[C@H]1CC[C@H](NS(=O)(=O)c2ccc3c(c2)N(C)CCC3)CC1)c1ccncc1` (some centres unmarked) [Example 161, (1r,4r)-4-(1-methyl-1,2,3,4-tetrahydroquinoline-7-sulfonamido)-N-(1-(pyridin-4-yl)ethyl)cyclohexanecarboxamide], with 340 nM; and `C[C@@H](NC(=O)[C@H]1CC[C@H](NS(=O)(=O)c2ccc3ccccc3c2)CC1)c1ccc(F)cc1` [Example 677, (1r,4R)-N-((R)-1-(4-fluorophenyl)ethyl)-4-(naphthalene-2-sulfonamido)cyclohexanecarboxamide], with 10 nM.
Turning to `CN1CCN(c2ccc(-c3nc4cc(S(=O)(=O)N[C@H]5CC[C@H](C(=O)N6CCOCC6)CC5)ccc4[nH]3)cc2)CC1` [Example 583, 2-(4-(4-methylpiperazin-1-yl)phenyl)-N-((1r,4r)-4-(morpholine-4-carbonyl)cyclohexyl)-1H-benzo[d]imidazole-5-sulfonamide], the IC50 came to 55 nM.
The result for `C[C@@H](NC(=O)[C@H]1CC[C@H](NS(=O)(=O)c2cnc3c(c2)NCC(C)(C)CN3)CC1)c1ccc(F)cc1` [Example 153, (1r,4R)-4-(3,3-dimethyl-2,3,4,5-tetrahydro-1H-pyrido[2,3-b][1,4]diazepine-8-sulfonamido)-N-((R)-1-(4-fluorophenyl)ethyl)cyclohexanecarboxamide] reads 440 nM; that for `O=C([C@H]1CC[C@H](NS(=O)(=O)c2ccc3[nH]c(-c4ccccc4)nc3c2)CC1)N1CCOCC1` [Example 650, N-((1r,4r)-4-(morpholine-4-carbonyl)cyclohexyl)-2-phenyl-1H-benzo[d]imidazole-5-sulfonamide], 304 nM.
The result for `CCC(C)NC(=O)[C@H]1CC[C@H](NS(=O)(=O)c2ccc3[nH]c(-c4cccnc4)cc3c2)CC1` (stereo partly drawn) [Example 287, (1r,4R)-N-sec-butyl-4-(2-(pyridin-3-yl)-1H-indole-5-sulfonamido)cyclohexanecarboxamide] reads 196 nM; that for `CC(O)c1ccc(-c2nc3cc(S(=O)(=O)N[C@H]4CC[C@H](C(=O)N[C@H](C)c5ccccc5)CC4)ccc3[nH]2)cc1` (stereo partly drawn) [Example 573, (1r,4R)-4-(2-(4-(1-hydroxyethyl)phenyl)-1H-benzo[d]imidazole-5-sulfonamido)-N-((R)-1-phenylethyl)cyclohexanecarboxamide], below 10 nM; that for `Cn1c(-c2ccccc2)cc2cc(S(=O)(=O)N[C@H]3CC[C@H](C(=O)N4CC(C(=O)O)CCC4c4ccccc4)CC3)ccc21` (some centres unmarked) [Example 91, 1-((1r,4r)-4-(1-methyl-2-phenyl-1H-indole-5-sulfonamido)cyclohexanecarbonyl)-6-phenylpiperidine-3-carboxylic acid], 30 nM.
Then `CC1CCc2ccc(S(=O)(=O)N[C@H]3CC[C@H](C(=O)N[C@H](C)c4ccc(F)cc4)CC3)cc2N1` (stereo partly drawn) [Example 168, (1r,4R)-N-((R)-1-(4-fluorophenyl)ethyl)-4-(2-methyl-1,2,3,4-tetrahydroquinoline-7-sulfonamido)cyclohexanecarboxamide], with 40 nM.

These data come from patent US8697739B2, “Bicyclic acetyl-CoA carboxylase inhibitors and uses thereof” (Novartis AG, priority 2010, dated 2014).
